Test results: patent US10457665B2, “1,4-di-(4-methylthiophenyl)-3-phtaloylazetidine-2-one and the derivatives thereof” (Universite De Nantes, priority 2015, dated 2019)

What was measured:
obese C57BL/6 mice [1] = experiment: Food intake, body weight and body composition (EchoMRI) during 30-day chronic treatment; assay type: in vivo, mouse; details: obese mice, 10 mg/kg i.p. daily, 30 days
Source text: In order to determine the long-term effects of the molecules of interest, C57BL/6 mice made obese by means of a high-sucrose, high-fat diet (HSHF: 30% crude fat, 33.5% carbohydrates; ref. E15126-34; ref. E15126-34, SSNIFF, Soest, Germany) for 20 weeks. These mice then received daily an i.p. injection of rimonabant, JM-00.266 (i.e., compound IA) or vehicle for a period of 30 days. In parallel, weight and food intake were monitored every two days following the beginning of the treatment.
The long-term effect of the treatment on body composition was measured using an EchoMRI™ scanner allowing non-invasive analysis of fat mass, lean mass and body fluid composition by nuclear magnetic resonance (NMR) on the live animal without anaesthesia.

obese C57BL/6 mice [2] = experiment: Body mass, 43-day oral treatment combined with low-fat diet; assay type: in vivo, mouse; details: low-fat diet (5% lipids), oral daily, 43 days
Source text: In order to determine the long-term effects of compound of interest JM-00.266 (i.e., compound IA), C57BL/6 mice were made obese by means of a high-fat diet (30% crude fat, 33.5% carbohydrates; ref. E15126-34, SSNIFF, Soest, Germany) for 15 weeks. The mice were then subjected to a low-fat diet (5% lipids; Standard Diet AO4; UAR, Epinay-sur-Orge, France) and received daily, in the middle of the day, an oral dose of JM-00.266 (i.e., compound IA) or of vehicle over a period of 43 days. The weight of the animals was measured every two days from the beginning of the treatment.

wild-type C57BL/6 mice = experiment: Plasma insulin during OGTT (ELISA); assay type: in vivo, mouse; details: 10 mg/kg i.p.
Description: Assay of plasma insulin was carried out using the ALPCO™ Mouse Insulin ELISA Kit (ref. AKRIN-011T, ALPCO Diagnostics) according to the supplier's instructions. Blood samples were collected during an OGTT at t=0, t=30, t=60, t=120 min post-administration of the oral bolus of glucose (2 g/kg).

CB1R (pcDNA3.1-mCB1) = biological target: T1, CB1R (pcDNA3.1-mCB1) (Mus musculus, UniProt P47746); experiment: GloSensor cAMP assay in CB1R-transfected HEK293T/17 cells; assay type: cell-based; details: HEK293T/17 cells transfected with mCB1, forskolin 1 μM, FIG. 2
T1 construct: expressed in transfected cells; host or cells: HEK293T/17 (ATCC), transient transfection with FuGENE HD
T1 sequence (P47746 whole entry): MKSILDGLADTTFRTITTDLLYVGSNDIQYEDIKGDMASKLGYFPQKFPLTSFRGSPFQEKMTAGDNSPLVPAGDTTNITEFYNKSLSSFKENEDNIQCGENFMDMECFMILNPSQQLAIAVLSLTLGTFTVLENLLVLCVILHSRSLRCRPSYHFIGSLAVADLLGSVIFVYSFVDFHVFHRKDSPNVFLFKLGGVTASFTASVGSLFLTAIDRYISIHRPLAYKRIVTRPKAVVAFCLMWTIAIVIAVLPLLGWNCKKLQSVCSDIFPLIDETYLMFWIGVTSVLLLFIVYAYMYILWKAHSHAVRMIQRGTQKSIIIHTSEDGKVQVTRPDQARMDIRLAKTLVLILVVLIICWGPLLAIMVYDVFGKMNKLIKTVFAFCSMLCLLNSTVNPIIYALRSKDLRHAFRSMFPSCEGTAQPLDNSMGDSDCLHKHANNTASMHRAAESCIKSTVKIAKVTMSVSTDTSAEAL
Description: HEK293T/17 (ATCC) cells were cultured in DMEM 10% FCS, then seeded at 30000 cells/well in 96-well plates. After 24 h, the cells were subjected to transient transfection by FuGENE HD (Promega) by pcDNA3.1-mCB1 (50 ng) and pGlo (100 ng) plasmids with or without pertussis toxin (PTX). For the control assays, the cells were transfected with empty pcDNA3 (EV) and pGlo vectors with or without PTX. At 48 h (24 h post-transfection), the cells were loaded for 2 h with 2% GloReagent in CO2-independent medium with 10% FCS (80 μL/well).
The cells were then treated by adding, at t=0, 10 μL/well of Forskolin (FSK) 1 μM final, in order to increase the basal cAMP concentration. The kinetics of appearance of cAMP was monitored for 10 minutes. At t=10, the molecules to be tested were added and the cAMP variations measured for 20 minutes. The light signal was measured in RLU and is expressed as % response relative to the signal read at t=10 min (FSK1 μM). Sigmoidal curves were obtained by measurement at t=10 min after addition of the molecule to be tested (thus t=20 min total) of the percentage of light signal as a function of molecule concentration. The 4PL regression was carried out using the Sigma Plot software and made it possible to obtain an EC50 (1 experiment, n=3).

obese C57BL/6 mice [3] = experiment: Body mass, oral treatment simultaneously with food on high-fat diet; assay type: in vivo, mouse; details: obese mice on high-fat diet (35% crude fat), one administration daily during the meal, 10 mg/kg oral, 28 days
Description: C57BL/6 mice were made obese by means of a high-fat diet (35% crude fat, 25.3% carbohydrates; ref. E15742-34, SSNIFF, Soest, Germany) for 15 weeks. […] The weight of the animals was measured every two days from the beginning of the treatment.

obese C57BL/6 mice [4] = experiment: Open-field test after 30-day chronic treatment; assay type: in vivo, mouse; details: end of 30-day treatment, 10 mg/kg i.p.
Description: Locomotor activity of the mice was measured at the conclusion of the chronic treatment with rimonabant or molecule JM-00.266 (i.e., compound IA) by an infrared monitoring system. To that end, the animals were placed individually in 43×43 cm plexiglass boxes (MED associates) for 20 min. Two series of 16 pulsed infrared beams were spaced 2.5 cm apart on opposite walls to record ambulatory X-Y movements at 100 ms resolution. The centre was defined as a central 32×32 cm square. In addition to locomotor activity information, this test makes it possible to predict anxiolytic activity in response to novelty or to an anxiogenic environment. The variables measured in the open field are total ambulatory activity (in cm), the number of entries and the time spent in the central area as well as the distance traversed in the centre divided by the total distance traversed.

## CSc1ccc(C2C(N3C(=O)c4ccccc4C3=O)C(=O)N2c2ccc(SC)cc2)cc1 (stereo not drawn) [JM-00.266, trans-1,4-di-(4-methylthiophenyl)-3-N-phthaloyl-azetidine-2-one]
Obese C57BL/6 mice [1]
  body weight relative to control mice: does not decrease
  food intake compared with control mice: not altered
Obese C57BL/6 mice [2]
  body mass / weight loss versus vehicle + low-fat diet: decreases significantly more
wild-type C57BL/6 mice; versus vehicle
  blood insulin at t=30 min: lower
wild-type C57BL/6 mice; wild-type mice
  insulin production induced by glucose administration: not stimulated
CB1R (pcDNA3.1-mCB1)
  cAMP concentrations in the absence of agonist (AEA): increased
Obese C57BL/6 mice [3]
  weight loss versus vehicle: lose more weight
Obese C57BL/6 mice [4]
  motor activity: no effect
  time spent in the centre of the arena / anxiety state: not altered
